How the values were obtained:
[1] = tested on: B16 melanoma; test: B16 melanoma implanted sc, drug iv (sc-iv) in BDF1 mice; assay type: in vivo; details: B16 sc implanted; for % ILS / (surv) sixty day survivors/number of mice treated / MST (median survival time): drug iv day 1; for OD (optimal dose): drug iv day 1, 0.1 mL vehicle
Experimental: (§1) Subcutaneously implanted B16 melanoma in BDF1 mice is a slow growing tumor, but its rate of growth becomes faster when it is implanted ip. […] This is not consistent with data in other tumors; however, in this connection it should be pointed out that the combined effects of drugs (or enantiomers in this case) can be manifested in several ways, i.e., they can be synergistic, additive, or subtractive.
(§2) 0.2 ml of brei (tumor weight/Hank's balanced salt solution, (1:5) of B16
(§3) implanted sc or ip into groups of nine BDF1 mice on day 0. Drugs
(§4) administered iv on day 1 or ip on days 1, 5, and 9, following tumor
(§5) administered ip on days 1, 5, and 9. OD, optimal dose in
(§6) milligrams/milliliter of vehicle, and administered iv or ip in 0.1 mL of
(§7) vehicle (5% v/v Me2 SOsaline). MST, median survival times in days of
(§8) tumor bearing and nondrug treated (control) or drugtreated mice. % ILS,
(§9) percent increase in life span of drug treated groups over the control
(§10) group of test animals, excluding survivors. (surv), number of sixty day
(§11) survivors/number of mice treated with drug.

[2] = tested on: B16 melanoma; test: B16 melanoma implanted ip, drug ip (ip-ip) in BDF1 mice; assay type: in vivo; details: B16 ip implanted; for % ILS / (surv) sixty day survivors/number of mice treated / MST (median survival time): drug ip days 1, 5, 9; for OD (optimal dose): drug ip days 1, 5, 9, 0.1 mL vehicle
Experimental: as §1, §2, §3, §4, §5, §6, §7, §8, §9, §10, §11

[3] = tested on: C26 colon carcinoma; test: C26 colon carcinoma implanted in CDF1 mice, drug ip; assay type: in vivo; details: for % ILS / (surv) sixty day survivors/number of mice treated / MST: drug ip days 1, 5, 9; for OD (optimal dose): drug ip days 1, 5, 9, 0.1 mL vehicle
Experimental: implantation. Primary colon C26 carcinoma (tripan blue excluding, 2.5
× 10^5 cells/mouse) implanted in CDF1 mice on day 0; drug
as §5, §6, §7, §8, §9, §10, §11

[4] = tested on: P388/ADR; test: Antitumor activity against ip implanted P388/ADR in CDF1 mice; assay type: in vivo; parameters: OD (optimal dose of drugs): unit not given here; details: for % ILS (percent increase in median life time vs controls) / (surv) number of 60 days survivors/number of animals tested / MST (median survival time): ip qd 1-9, at optimal dose; for OD (optimal dose of drugs): treated ip qd 1-9
Experimental: ^e Optimal dose of drugs.
^ f Median survival time of tumor bearing mice.
^g Percent increase in median life time in days of drugtreated dying
animals vs those of controls; (survivors), number of 60 days
survivors/number of animals tested in the group.
In order to examine a broader spectrum of activity, these optical isomers are tested in two other mouse leukemia cell lines in vivo. One cell line, P388/ADR, is a derivative of the above P388/S made resistant to intercalating agents like […].

[5] = tested on: P388/ADR; test: Inhibition of growth in vitro of P388/ADR cells; assay type: cell-based, mouse; details: actively growing tumor cells
Experimental: (§12) The analogues are assayed for in vitro growth inhibitory activity against several experimental tumor lines including human and murine leukemia, mouse melanoma, and human lymphoblastic leukemia.

[6] = tested on: B16; test: Inhibition of growth in vitro of B16 cells; assay type: cell-based, mouse; details: actively growing tumor cells
Experimental: as §12

[7] = tested on: L1210 cells; test: Inhibition of growth of L1210 cells in culture; assay type: cell-based, Murine
Experimental: as §12

[8] = tested on: leukemia L1210; test: Activity in mice bearing leukemia L1210; assay type: in vivo; details: L1210 ip in CDF1 mouse; for OD (optimal dose): ip days 1, 5, 9; for % ILS (percent increase in median life span) / (surv) number of over 60 days survivors/number of animals tested: ip days 1, 5, 9, at optimal dose
Excerpt: ^e OD, optimal dose of drugs in milligrams/killograms per injection,
administered ip on days 1, 5, and 9, following ip inoculation with
^f % ILS, percent increase in median life span in days, of the
tumorbearing drugtreated dying animals when compared with similar tumor
bearing mice but not treated with drugs. (surv), number of over 60 days
survivors/number of animals tested.

[9] = tested on: CCRF-CEM; test: In vitro growth inhibition of CCRF-CEM human lymphoblastic leukemia cells; assay type: cell-based; details: purer (90%) form of isomers
Experimental: as §12

[10] = tested on: DNA synthesis in L1210 cells; test: Inhibition of DNA synthesis in L1210 ([methyl-14C]thymidine incorporation); assay type: cell-based, Murine; details: [methyl-14C]thymidine incorporation into DNA; read-out: inhibition of synthesis of nucleic acids in L1210 IC50 DNA
Experimental: (§13) ^a Drug concentration (micromolor) for 50% reduction of incorporation
(§14) of [methyl^14 C]thymidine into DNA^b and [5^3 H] uridine into
(§15) RNA^c from the rate of incorporation of the same radionucleotides in
(§16) nondrug treated L1210 cells growing actively in vitro.
(§17) Inhibition of nucleic acid synthesis in L1210 lymphoid leukemia cells by (±)-EPA and it optical isomers are assayed. […] To achieve this, a digestion of the nucleic acid pellet with DNase-free RNase enzyme, prior to final pelleting of the DNA precipitate is made to ensure that no more than ±8% contamination from […] into DNA takes place, and for this the necessary correction is made in the data reported in Table V.

[11] = tested on: RNA synthesis in L1210 cells; test: Inhibition of RNA synthesis in L1210 ([5-3H]uridine incorporation); assay type: cell-based, Murine; details: [5-3H]uridine incorporation into RNA; read-out: inhibition of synthesis of nucleic acids in L1210 IC50 RNA
Experimental: as §13, §14, §15, §16, §17

[12] = tested on: CCRF-CEM; details: cited from earlier work
[13] = tested on: P388/S lymphocytic leukemia; details: cited from earlier work

| SMILES | % ILS [1] [%] | (surv) sixty day survivors/number of mice treated [1] | MST (median survival time) [1] [days] | OD (optimal dose) [1] | % ILS [2] [%] | (surv) sixty day survivors/number of mice treated [2] | MST (median survival time) [2] [days] | OD (optimal dose) [2] | % ILS [3] [%] | (surv) sixty day survivors/number of mice treated [3] | MST [3] [days] | OD (optimal dose) [3] | % ILS (percent increase in median life time vs controls) [4] [%] | (surv) number of 60 days survivors/number of animals tested [4] | MST (median survival time) [4] [days] | OD (optimal dose of drugs) [4] | inhibition of growth ID50 P388/ADR [5] [nM] | inhibition of growth ID50 B16 [6] [nM] | inhibition of growth of L1210 cells in culture; ID50 [7] [nM] | OD (optimal dose) [8] | further results |
| --- | --- | --- | --- | --- | --- | --- | --- | --- | --- | --- | --- | --- | --- | --- | --- | --- | --- | --- | --- | --- | --- |
| COc1cccc2c1C(=O)c1c(O)c3c(c(O)c1C2=O)C[C@@](O)(C(=O)CO)C[C@@H]3O[C@H]1C[C@H](N)[C@H](O)[C@H](C)O1 [adriamycin, reference compound] | 79 | 1/9 | 59.0 | 5.0 milligrams/milliliter of vehic | 224 | 7/9 | 60.0 | 5.0 milligrams/milliliter of vehic | 118 | 3/10 | 48.0 | 2.50 milligrams/milliliter of vehic |  |  |  |  |  |  |  |  |  |
| CO[C@@]12[C@H](COC(N)=O)C3=C(C(=O)C(C)=C(N)C3=O)N1C[C@@H]1N[C@@H]12 [mitomycin, mitomycin C, reference compound] |  |  |  |  |  |  |  |  |  |  |  |  | 400 | 5/10 | 45 | 1.0 |  |  |  |  |  |
| Cc1c2oc3c(C)c(OCC4CO4)cc(C(=O)NC4C(=O)NC(C(C)C)C(=O)N5CCCC5C(=O)N(C)CC(=O)N(C)C(C(C)C)C(=O)OC4C)c3nc-2c(C(=O)NC2C(=O)NC(C(C)C)C(=O)N3CCCC3C(=O)N(C)CC(=O)N(C)C(C(C)C)C(=O)OC2C)c(N)c1=O [(R)-(+)-EPA, 7-(2,3-epoxypropoxy) actinomycin D] | 70 | 1/9 | 56.0 | 1.0 milligrams/milliliter of vehic | 105 | 2/9 | 39.0 | 0.30 milligrams/milliliter of vehic | 89 | 2/10 | 41.5 | 0.60 milligrams/milliliter of vehic | 400 | 4/10 | 45 | 0.30 | 40 ± 12 | 2.0 ± 0.4 | 23.1 ± 7.7 | 0.05 milligrams/killograms per inje | % ILS (percent increase in median life span) [8]: 199%; (surv) number of over 60 days survivors/number of animals tested [8]: 3/9; 50% growth inhibitory dose (ID50) ([9]; listed as R-(+) isomer): 2.0 nM |
| Cc1c2oc3c(C)c(OCC4CO4)cc(C(=O)NC4C(=O)NC(C(C)C)C(=O)N5CCCC5C(=O)N(C)CC(=O)N(C)C(C(C)C)C(=O)OC4C)c3nc-2c(C(=O)NC2C(=O)NC(C(C)C)C(=O)N3CCCC3C(=O)N(C)CC(=O)N(C)C(C(C)C)C(=O)OC2C)c(N)c1=O (racemic) [3b[(±)-EPA]] [7-(2,3-epoxypropoxy) actinomycin D] | 64 | 0/9 | 54.0 | 1.0 milligrams/milliliter of vehic | 105 | 2/9 |  | 0.30 milligrams/milliliter of vehic | 64 | 0/10 | 36.0 | 0.60 milligrams/milliliter of vehic | 344 | 4/10 | 40 | 0.65 | 80 ± 11 | 2.5 ± 0.6 | 28.7 ± 8.7 | 0.05 milligrams/killograms per inje | % ILS (percent increase in median life time vs controls) ([4]; listed as racemic EPA): 344%; (surv) number of 60 days survivors/number of animals tested ([4]; listed as racemic EPA): four out of 10; IC50 [10]: 80 ± 19 nM; IC50 [11]: 24 ± 4 nM; % ILS (percent increase in median life span) [8]: 186%; (surv) number of over 60 days survivors/number of animals tested [8]: 2/9; antitumor activity in CCRF-CEM cells in vitro [12]: high antitumor activity; antitumor activity in P388/S mouse leukemia in vivo [13]: high antitumor activity |
| Cc1c2oc3c(C)c(OCC4CO4)cc(C(=O)NC4C(=O)NC(C(C)C)C(=O)N5CCCC5C(=O)N(C)CC(=O)N(C)C(C(C)C)C(=O)OC4C)c3nc-2c(C(=O)NC2C(=O)NC(C(C)C)C(=O)N3CCCC3C(=O)N(C)CC(=O)N(C)C(C(C)C)C(=O)OC2C)c(N)c1=O [(S)-(-)-EPA, 7-(2,3-epoxypropoxy) actinomycin D] | 60 |  | 53.0 | 1.0 milligrams/milliliter of vehic | 74 |  | 33.0 | 0.30 milligrams/milliliter of vehic | 64 | 1/10 | 36.0 | 0.90 milligrams/milliliter of vehic | 377 | 5/10 | 43 | 0.80 | 135 ± 12 | 3.5 ± 1.0 | 56.8 ± 8.8 | 0.05 milligrams/killograms per inje | % ILS (percent increase in median life span) [8]: 143%; (surv) number of over 60 days survivors/number of animals tested [8]: 1/9; 50% growth inhibitory dose (ID50) ([9]; listed as S-(-) isomer): 3.5 nM |

From US5155209A, “R-(+) enantiomeric form of 7-(2, 3-epoxypropoxy) actinomycin D” (priority 1991, dated 1992)
